Experimental findings from patent US20150038543A1, “ANTI-GLYCATION PROPERTIES OF OXINDOLE DERIVATIVES” (priority 2013, published 2015) are described below.

The target of the experiment is T1, BSA-MG glycation model (bovine serum albumin + methylglyoxal) (Bos taurus, UniProt P02769).
T1 construct: purchased Merck Marker Pvt; Ltd. (Germany)
Nature of the experiment: in vitro BSA-MG glycation model (fluorescence of AGE formation). The experiment is classed as biochemical. The note with it: for activity against the protein glycation (in words): in vitro protein glycation, compared with standard rutin. Here is the method:
Bovine serum albumin (BSA) was purchased from Merck Marker Pvt. Ltd. (Germany), rutin and methylglyoxal (MG) (40% aqueous solution) were from Sigma Aldrich (Japan), sodium dihydrogen phosphate (NaH2PO4), disodium hydrogen phosphate (Na2HPO4) and sodium azide (NaN3) were purchased from Scharlau Chemie, S. A. (Spain), while dimethyl sulphoxide (DMSO) was purchased from Fischer Scientific (UK).
The total reaction volume of the assay was 200 μL, having final concentrations of 10 mg/mL BSA, 14 mM methylglyoxal, and 1 mM test compounds. 10 mg/mL solution of BSA and 14 mM methylglyoxal was prepared in 0.1 M phosphate buffer (pH 7.4), containing sodium azide (NaN3) (30 mM) as antimicrobial agent, while 1 mM solutions of test compounds were prepared in the DMSO. Assay was performed in triplicate. Each reaction mixtures were comprised of 50 μL BSA, 50 μL methylglyoxal, 20 μL test compound and 80 μL phosphate buffer (pH 7.4). The reaction mixture was incubated under aseptic conditions at 37° C. for 9 days.
After completion of nine days of incubation, each sample was examined for the development of specific fluorescence (excitation 330 nm; emission 420 nm) against blank on a microtitre plate reader (SpectraMax M2, Molecular Devices, CA, USA). The percent inhibition of AGE formation by the test sample versus control was calculated by using the following formula:
% Inhibition=(1−Fluorescence of test sample/Fluorescence of the control)×100
The IC50 (i.e. the concentration of test samples that inhibit the process of glycation to 50%) was determined by monitoring the effect of various concentrations (ranges from 1000-50 μM) of test compounds. The IC50 values were calculated by using EZ-FIT Enzyme Kinetics Program (Perrella Scientific Inc., Amherst, USA). The antiglycation potential of test compounds was compared with rutin, which was used as standard inhibitor.

[1] abbreviates: Antiglycation Activity IC50 ± SEM, BSA 10 mg/mL, methylglyoxal 14 mM, pH 7.4, 37° C., 9 days, test concentrations 1000-50 μM, triplicate, NA = not active.
Setting [2] is: BSA 10 mg/mL, methylglyoxal 14 mM, pH 7.4, 37° C., 9 days, test concentrations 1000-50 μM, triplicate, NA = not active, read-out: Antiglycation Activity IC50 ± SEM.
[3] abbreviates: read-out: % inhibition against BSA-MG glycation model, 1 mM test compound, BSA 10 mg/mL, methylglyoxal 14 mM, 37° C., 9 days.
Setting [4] is: 1 mM test compound, BSA 10 mg/mL, methylglyoxal 14 mM, 37° C., 9 days, read-out: % inhibition against BSA-MG glycation model.

Values joined by “and” are separate entries in the source; they are usually repeats but may differ in a detail not shown here. Equal entries are not always repeated. Where two headings read alike, the source gives them in different places.

The term IC50 denotes the point on the concentration scale where inhibition reaches its midpoint.

T1 sequence (P02769 25-607): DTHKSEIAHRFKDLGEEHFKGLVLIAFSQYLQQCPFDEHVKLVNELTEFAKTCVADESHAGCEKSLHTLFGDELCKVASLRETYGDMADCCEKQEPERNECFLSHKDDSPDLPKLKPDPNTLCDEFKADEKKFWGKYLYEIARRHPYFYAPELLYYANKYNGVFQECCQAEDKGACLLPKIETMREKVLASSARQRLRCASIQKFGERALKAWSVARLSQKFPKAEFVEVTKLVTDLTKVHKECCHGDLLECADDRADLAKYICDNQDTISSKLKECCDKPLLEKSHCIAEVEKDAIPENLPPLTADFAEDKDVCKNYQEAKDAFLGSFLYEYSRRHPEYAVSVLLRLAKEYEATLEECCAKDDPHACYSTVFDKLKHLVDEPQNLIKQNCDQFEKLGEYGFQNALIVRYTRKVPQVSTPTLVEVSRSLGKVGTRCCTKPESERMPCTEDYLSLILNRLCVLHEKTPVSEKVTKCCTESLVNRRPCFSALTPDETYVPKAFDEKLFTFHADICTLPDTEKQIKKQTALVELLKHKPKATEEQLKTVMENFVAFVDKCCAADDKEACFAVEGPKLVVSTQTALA

Regarding `O=C1Nc2ccccc2/C1=C\c1c2ccccc2cc2ccccc12` [Compound 4, 3-[(E)-9-anthrylmethylidene]-1,3-dihydro-2H-indol-2-one], the IC50 under setting [1] was 456 µM and 194 to 455 µM.

`O=C1Nc2ccccc2/C1=C\c1cccc(Cl)c1` [Compound 14, 3-[(E)-(3-chlorophenyl)methylidene]-1,3-dihydro-2H-indol-2-one]: the “activity against the protein glycation (in words)” value (shortened to “activity”) is on record as “potent activity”. Moreover, under setting [1], the 50% inhibitory concentration (IC50) is 151 µM and 150 µM.

Regarding `O=C1Nc2ccccc2/C1=C\c1ccccc1O` [Compound 20, 3-[(E)-(2-hydroxyphenyl)methylidene]-1,3-dihydro-2H-indol-2-one], the “activity” value is “potent activity”. Further, under setting [2], the IC50 is 285 µM and 194 to 455 µM.

Consider `COc1ccccc1/C=C1/C(=O)Nc2ccccc21` [Compound 7, 3-[(E)-(2-methoxyphenyl)methylidene]-1,3-dihydro-2H-indol-2-one], for which the IC50 (bovine, 9 days, pH 7.4) was in the range of 194 to 455 µM. The inhibition at 1000 µM under setting [3] is under 50%.

Regarding `O=C1Nc2ccccc2/C1=C\c1cccc2ccccc12` [Compound 2, 3-[(E)-1-naphthylmethylidene]-1,3-dihydro-2H-indol-2-one], the IC50 (bovine, 9 days, pH 7.4) is 194 to 455 µM. Also, the inhibition at 1000 µM under setting [3] is under 50%.

In the case of `O=C1Nc2ccccc2/C1=C\c1ccc(Cl)c(Cl)c1` [Compound 12, 3-[(E)-(3,4-dichlorophenyl)methylidene]-1,3-dihydro-2H-indol-2-one], the inhibition at 1000 µM under setting [3] was under 50%.

In the case of `CSc1ccc(/C=C2/C(=O)Nc3ccccc32)cc1` [Compound 10, 3-[(E)-(4-methylsulfanylphenyl)methylidene]-1,3-dihydro-2H-indol-2-one], under setting [3], the inhibition at 1000 µM is under 50%.

Take `O=C1Nc2ccccc2/C1=C\c1ccccc1F` [Compound 9, 3-[(E)-(2-fluorophenyl)methylidene]-1,3-dihydro-2H-indol-2-one]: the inhibition at 1000 µM under setting [3] is under 50%.

As to `CCOc1ccc(/C=C2/C(=O)Nc3ccccc32)cc1` [Compound 6, 3-[(E)-(4-ethoxyphenyl)methylidene]-1,3-dihydro-2H-indol-2-one], under setting [4], the inhibition at 1000 µM was under 50%.

Turning to `O=C1Nc2ccccc2/C1=C\c1cccc([N+](=O)[O-])c1` [Compound 17, 3-[(E)-(3-nitrophenyl)methylidene]-1,3-dihydro-2H-indol-2-one], the inhibition at 1000 µM under setting [3] was under 50%.

For the compound `CCOc1cccc(/C=C2/C(=O)Nc3ccccc32)c1O` [Compound 3, 3-[(E)-(3-ethoxy-2-hydroxyphenyl)methylidene]-1,3-dihydro-2H-indol-2-one], the “activity” value is reported as “potent activity”. Besides, the IC50 under setting [1] is 268 µM and 194 to 455 µM.

Take `O=C1Nc2ccccc2/C1=C\c1ccc([N+](=O)[O-])cc1` [Compound 15, 3-[(E)-(4-nitrophenyl)methylidene]-1,3-dihydro-2H-indol-2-one]: the inhibition at 1000 µM under setting [4] is under 50%.

On to `O=C1Nc2ccccc2/C1=C\c1ccc(Cl)cc1Cl` [Compound 18, 3-[(E)-(2,4-dichlorophenyl)methylidene]-1,3-dihydro-2H-indol-2-one], for which the IC50 under setting [1] came to 856.7 ± 2.4 µM.

With `O=C1Nc2ccccc2/C1=C\c1cc(Cl)ccc1O` [Compound 16, 3-[(E)-(5-chloro-2-hydroxyphenyl)methylidene]-1,3-dihydro-2H-indol-2-one], the inhibition at 1000 µM under setting [3] is under 50%.

On to `Cc1ccc(O)c(/C=C2/C(=O)Nc3ccccc32)c1` [Compound 13, 3-[(E)-(2-hydroxy-5-methylphenyl)methylidene]-1,3-dihydro-2H-indol-2-one], for which the “activity” value was “potent activity”. The 50% inhibitory concentration (IC50) under setting [1] was 194 µM and 194 to 455 µM.

With `COc1cccc(/C=C2/C(=O)Nc3ccccc32)c1O` [Compound 11, 3-[(E)-(2-hydroxy-3-methoxyphenyl)methylidene]-1,3-dihydro-2H-indol-2-one], the IC50 under setting [1] was 374 µM and 194 to 455 µM.

Take `O=C1Nc2ccccc2/C1=C\c1ccc(O)cc1` [Compound 5, 3-[(E)-(4-hydroxyphenyl)methylidene]-1,3-dihydro-2H-indol-2-one]: the inhibition at 1000 µM under setting [4] is under 50%.

On to `C[C@@H]1O[C@@H](OC[C@H]2O[C@@H](Oc3c(-c4ccc(O)c(O)c4)oc4cc(O)cc(O)c4c3=O)[C@H](O)[C@@H](O)[C@@H]2O)[C@H](O)[C@H](O)[C@H]1O` [Rutin, reference compound], for which the IC50 under setting [2] was found to be 294 µM.

Take `O=C1Nc2ccccc2/C1=C\c1ccc(Cc2ccccc2)cc1` [Compound 21, 3-[(E)-(4-benzylphenyl)methylidene]-1,3-dihydro-2H-indol-2-one]: the inhibition at 1000 µM under setting [3] is under 50%.

Consider `O=C1Nc2ccccc2/C1=C\c1cccc(O)c1` [Compound 1, 3-[(E)-(3-hydroxyphenyl)methylidene]-1,3-dihydro-2H-indol-2-one], for which the “activity” value was “potent activity”. Also, the IC50 under setting [2] was 282 µM and 194 to 455 µM.

Regarding `O=C1Nc2ccccc2/C1=C\c1ccc(F)cc1` [Compound 8, 3-[(E)-(4-fluorophenyl)methylidene]-1,3-dihydro-2H-indol-2-one], the “activity” value is on record as “potent activity”. Further, the half-inhibitory concentration (IC50) under setting [1] was 211 ± 4.1 µM.
